How the values were obtained:
[1] = test system: P. chrysosporium ligninolytic culture; type: cell-based, Phanerochaete chrysosporium; settings: initial 200 mg-per-liter, ten days of growth
Description: Decolorization of dyes in cultures were monitored at their absorption maxima at pH 4.5, or using HPLC. A Spherisorb ODS2 C18 column was used for HPLC analysis with a sequence of DMS buffer at pH 4.5 and acetonitrile as solvents (5 min 100% DMS, 15 min 100% acetonitrile, 18 min 100% acetonitrile, 19 min 100% DMS, 20 min 100% DMS, 5 min postran 100% DMS). Peaks were monitored at 260 and 450 nm. Results from spectrophotometric and HPLC methods were compared.
The initial concentration of dye was 200 mg-per-liter. Numbers represent mg-per-liter of dye remaining in the cultures.

P. chrysosporium = assay: Mineralization of 14C-labeled dyes by shaken cultures; type: cell-based, Phanerochaete chrysosporium; settings: P. chrysosporium
Description: Agitated cultures containing 100,000 to 150,000 dpm of azo dye at a concentration of 200 mg/liter for P. chrysosporium and 50 mg/liter for S. chromofuscus were incubated at 37° C. for 20 days with shaking at 200 rpm. For each mineralization experiment six replicates-per-culture were run for P. chrysosporium and three replicates-per-culture for S. chromofuscus. Each culture flask contained a CO2 trap consisting of a small glass cup connected to the bottom of the rubber stopper. The cup contained 1 ml of 1N NaOH. Samples were taken every 2 days, and after each sampling cultures were flushed with 100% oxygen for 30 s. At the sampling time, the stopper was removed and the NaOH containing trapped CO2 was transferred to a 20-ml scintillation vial, and the cup was then rinsed twice with 1 ml of water. Two ml of rinse water were also transferred to the vial. Finally, 10 ml of Ecolite scintillation cocktail (ICN Biochemicals Inc., Irvine, Calif.) were added to each vial. Vials, after mixing, were stored in the dark for 24 h. The cpm of trapped radioactivity was then determined in a Packard Tri-Carb liquid scintillation analyzer, Model 1500, using the ^14 C quench standards and SIS numbers.
Either a charcoal-containing polyurethane sponge (Bio-Rad Laboratories, Richmond, Calif.) or 2-methoxyethanol was used to trap volatile organic compounds released during mineralization experiments. The sponge (1 cm^3) replaced the 1N NaOH solution in the small glass cap attached to the rubber stopper; other conditions were as before for the ^14 CO2 experiments. For scintillation counting, the charcoal sponges were dissolved in 1 ml of hyamine hydroxide contained in scintillation vials (1M solution in methanol; NEN Research Products, Boston, Mass.) held at 55° C. for 2 h. Ten ml of Ecolite scintillation cocktail were then added and the cpm was measured.
In the second procedure, cultures with CO2 traps were flushed with oxygen for 10 min, and the organic volatiles present were trapped in 10 ml of 2-methoxyethanol mixed with 10 ml Ecolite.
The removal of radioactivity from the media was determined by measuring the amount of ^14 C label in 0.1 ml of the medium at time 0 and 21 days for each culture. Uninoculated cultures were used as evaporation controls. […] At the end of each mineralization experiment, culture broths were acidified with 5 ml of 1M H3 PO4, fresh 1N NaOH was added to the trap, and the cultures were shaken overnight. No additional releases of ^14 CO2 were observed. The radioactivity assimilated by the cells was measured by solubilizing biomass harvested from each 21-day-old culture in an equal volume of hyamine hydroxide solution. Before solubilization, cells were washed three times with 50 ml of distilled water to remove adsorbed dyes. Ecolite 10 ml was added to the mixture, which was vortexed vigorously. To increase counting efficiency, the solution of biomass-hyamine-scintillation cocktail was further diluted 10 to 20 times with fresh Ecolite before counting.

[2] = target: T1, horseradish peroxidase type II (Armoracia rusticana, UniProt P00433); assay: Oxidation of azo dyes by horseradish peroxidase preparation; type: biochemical; settings: pH 8, 37° C., H2O2
T1 sequence (P00433 31-338): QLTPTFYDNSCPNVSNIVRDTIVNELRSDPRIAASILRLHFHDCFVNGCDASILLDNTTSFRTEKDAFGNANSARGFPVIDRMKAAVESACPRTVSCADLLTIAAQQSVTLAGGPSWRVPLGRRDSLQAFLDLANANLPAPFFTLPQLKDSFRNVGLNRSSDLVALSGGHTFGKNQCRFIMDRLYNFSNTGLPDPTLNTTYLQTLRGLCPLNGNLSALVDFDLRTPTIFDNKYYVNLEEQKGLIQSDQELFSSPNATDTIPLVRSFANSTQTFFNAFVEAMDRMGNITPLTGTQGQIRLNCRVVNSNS
Description: The reaction was started with the addition of 100 μl of 50 mM H2 O2 and was followed for 1 min at 37° C. Controls were run with no addition of H2 O2 or with the addition of the hemeperoxidase inhibitor KCN (final concentration 25 μM).

[3] = test system: S. chromofuscus A11 extracellular peroxidase; assay: Oxidation of azo dyes by S. chromofuscus A11 crude enzyme preparation; type: biochemical, Streptomyces chromofuscus A11; settings: pH 8, 37° C., H2O2
Description: Environ. Microbiol., 1988, 54:3057-3063. […] Microbiol. Biotechnol., 34:661-667. Incubation took place at 37° C. with shaking at 250 rpm. The culture supernatant was collected after 48 h incubation, and vacuum-filtered through Whatman no. 1 filter paper. The filtrate was concentrated approximately 40- to 50-fold by ultrafiltration through an Amicon ultrafiltration stirred cell (series no. 8000, Amicon Corp.) with a disc PM-10 filter (diameter, 76 mm). Protein in the concentrated filtrate was then precipitated from solution with 80% ammonium sulfate. The precipitate was collected by centrifugation (15 min, 10,000 rpm). The pellet was resuspended in 10 ml of 20 mM HEPES buffer (pH 8) and dialyzed overnight against the same buffer at 4° C. These preparations were then stored in 1-ml aliquots at -20° C. until used. Before using, the preparation was filtered through a NAP-25 Sephadex G-25 disposable column (Pharmacia) in order to separate a yellowish protein fraction from a pink low-molecular-weight fraction. The yellowish fraction was used as the source of enzyme. […] The reaction was started with the addition of 100 μl of 50 mM H2 O2 and was followed for 1 min at 37° C. Controls were run with no addition of H2 O2 or with the addition of the hemeperoxidase inhibitor KCN (final concentration 25 μM).

Mn(II)-peroxidase = assay: Oxidation of dyes by P. chrysosporium Mn(II)-peroxidase; type: biochemical, Phanerochaete chrysosporium; settings: crude enzyme, conditions specific for Mn(II)-peroxidase
Description: (§1) The peroxidase assay was carried out using a composition having a final volume of 1.0 ml. The reaction mixture contained 250 μl of 100 mM HEPES buffer (pH 8), 500 μl of 10 mM 2,4-dichlorophenol, 100 μl of 1 mM aminoantipyrine, 50 μl enzyme preparation and 100 μl 50 mM H2 O2. The reaction was initiated by the addition of hydrogen peroxide at 37° C. One unit of peroxidase activity was expressed as the amount of enzyme required for an increase of one absorbance-unit-per-minute at 510 nm. Assays of manganese peroxidase and of ligninase from P. chrysosporium were carried out as previously described by Paszczynski et al in "Manganese peroxidase of Phanerochaete chrysosporium: Purification," Methods Enzymol. 161:264-270, incorporated herein by reference. […] Biophys., 1986, 44:750-765. Preparation and assay of ligninase and manganese peroxidase from these P. chrysosporium cultures were carried out as previously reported by Paszczynski, et al., Methods Enzymol., 1988, 161:264-270. […] Purification," Methods Enzymol. 161:264-270. […] Cycle time was 10 seconds, with the last measure after three minutes of incubation.

ligninase = assay: Oxidation of dyes by P. chrysosporium ligninase (crude preparation); type: biochemical, Phanerochaete chrysosporium; settings: crude enzyme, conditions specific for ligninase
Description: as §1, with “30 seconds” for “10 seconds,”, “15 minutes. […] The reaction conditions were the same as for acid yellow 9. No decolorization” for “three minutes”, “the synthesized dyes by ligninase was detected.” for “incubation.”

[4] = test system: Phanerochaete chrysosporium; assay: Substrate removal / decolorization by P. chrysosporium culture; type: cell-based; settings: for % Decolorization, P. chrysosporium: 14 days
Description: Environ. Microbiol., 1981, 42:290-296), with the addition of 75 mg adenine (6-aminopurine) and 27 mg L-phenylalanine-per-liter. This addition accelerated the growth of the fungus without inhibiting ligninase activity. […] […] Cultures were incubated at 37° C. for 7 to 15 days with shaking (250 rpm). Solid agar media were also employed.

[5] = beginning concentration 150 ppm
[6] = beginning concentration 300 ppm

CCOc1ccc(N=Nc2ccc(C=Cc3ccc(N=Nc4ccc(OCC)cc4)cc3S(=O)(=O)O)c(S(=O)(=O)O)c2)cc1 [compound 27]
Dye remaining in the cultures, HPLC [1]: 29.42 mg-per-liter
Dye remaining in the cultures, Spectrophotometry [1]: 28.33 mg-per-liter

O=S(=O)(O)c1ccc(N=Nc2c(O)ccc3ccccc23)c2ccccc12 [compound 23]
Dye remaining in the cultures, HPLC [1]: 72.43 mg-per-liter
Dye remaining in the cultures, Spectrophotometry [1]: 89.27 mg-per-liter

Cc1ccc(S(=O)(=O)Oc2ccc(N=Nc3ccc(-c4ccc(N=Nc5c(O)ccc6cc(S(=O)(=O)O)cc(S(=O)(=O)O)c56)c(C)c4)cc3C)cc2)cc1 [compound 21]
Dye remaining in the cultures, HPLC [1]: 103.62 mg-per-liter
Dye remaining in the cultures, Spectrophotometry [1]: 102.38 mg-per-liter

O=S(=O)(O)[14c]1[14cH][14cH][14c](N=Nc2c(O)ccc3ccccc23)[14cH][14cH]1 [compound 36]
Degradation began earlier than dye 37 (P. chrysosporium): 2 days
Degradation relative to dye 37 (P. chrysosporium; 21-day incubation): 2.5 times

COc1ccccc1NC(=O)C(N=Nc1ccc(-c2nc3ccc(C)c(S(=O)(=O)O)c3s2)cc1S(=O)(=O)O)=C(C)O [compound 29]
Dye remaining in the cultures, HPLC [1]: 109.39 mg-per-liter
Dye remaining in the cultures, Spectrophotometry [1]: 108.92 mg-per-liter

Nc1ccc2cc(S(=O)(=O)O)cc(O)c2c1N=Nc1ccc(NC(=O)Nc2ccc(N=Nc3c(N)ccc4cc(S(=O)(=O)O)cc(O)c34)c(S(=O)(=O)O)c2)cc1S(=O)(=O)O [compound 26]
Dye remaining in the cultures, HPLC [1]: 6.98 mg-per-liter
Dye remaining in the cultures, Spectrophotometry [1]: 4.33 mg-per-liter

Nc1ccc2c(O)c(N=Nc3ccc(N=Nc4ccc(N=Nc5cc(S(=O)(=O)O)c6cccc(S(=O)(=O)O)c6c5)c5ccccc45)c4ccc(S(=O)(=O)O)cc34)c(S(=O)(=O)O)cc2c1 [compound 25]
Dye remaining in the cultures, HPLC [1]: 14.86 mg-per-liter
Dye remaining in the cultures, Spectrophotometry [1]: 9.66 mg-per-liter

COc1cc(-c2ccc(N=Nc3c(S(=O)(=O)O)cc4cc(S(=O)(=O)O)cc(N)c4c3O)c(OC)c2)ccc1N=Nc1c(S(=O)(=O)O)cc2cc(S(=O)(=O)O)cc(N)c2c1O [compound 22]
Dye remaining in the cultures, HPLC [1]: 12.28 mg-per-liter
Dye remaining in the cultures, Spectrophotometry [1]: 7.64 mg-per-liter

O=S(=O)(O)c1ccc2c(N=Nc3ccccc3)c(O)ccc2c1 [compound 19]
Oxidation rate of azo dyes, Horseradish peroxidase [2]: 0.08 μmoles per minute per ml
Oxidation rate of azo dyes, S. chromofuscus peroxidase [3]: 0.35 μmoles per minute per ml
Oxidation rate of azo dyes, P. chrysosporium Mn-peroxidase (Mn(II)-peroxidase): 0.10 μmoles per minute per ml
Oxidation rate of azo dyes, P. chrysosporium Ligninase (ligninase): 2.06 μmoles per minute per ml
Concentration of substrate after ten days cultivation with P. chrysosporium [4, 5]: 2.938 ppm
Concentration of substrate after ten days cultivation with P. chrysosporium [4, 6]: 252.592 ppm
% Decolorization, P. chrysosporium ([4]; initial concn 150 ppm): 93%
% Decolorization, P. chrysosporium ([4]; initial concn 300 ppm): 87%

Nc1c(N=Nc2ccc(-c3ccc(N=Nc4cc(S(=O)(=O)O)c5ccccc5c4N)cc3)cc2)cc(S(=O)(=O)O)c2ccccc12 [compound 20]
Dye remaining in the cultures, HPLC [1]: 62.20 mg-per-liter
Dye remaining in the cultures, Spectrophotometry [1]: 52.01 mg-per-liter

Nc1ccc(N=Nc2ccc(S(=O)(=O)O)cc2)cc1S(=O)(=O)O [compound 18]
Oxidation rate of azo dyes, Horseradish peroxidase [2]: 0.12 μmoles per minute per ml
Oxidation rate of azo dyes, S. chromofuscus peroxidase [3]: 0.15 μmoles per minute per ml
Oxidation rate of azo dyes, P. chrysosporium Mn-peroxidase (Mn(II)-peroxidase): 0.09 μmoles per minute per ml
Oxidation rate of azo dyes, P. chrysosporium Ligninase (ligninase): 1.38 μmoles per minute per ml
Concentration of substrate after ten days cultivation with P. chrysosporium ([4]; beginning concentration 100 ppm): 8.387 ppm
Concentration of substrate after ten days cultivation with P. chrysosporium [4, 5]: 20.342 ppm
Concentration of substrate after ten days cultivation with P. chrysosporium ([4]; beginning concentration 200 ppm): 40.875 ppm
Concentration of substrate after ten days cultivation with P. chrysosporium [4, 6]: 77.099 ppm
